According to article PMC9452538, “The antimicrobial peptide LI14 combats multidrug-resistant bacterial infections” (Communications Biology, 2022):
Converted amounts (≈) assume the structure as drawn. Like-named read-outs stand apart in the source and are kept apart here. Peptide text beside a SMILES is read from it.

Legend:
MRSA 1530 = experiment: microbe, parasite or virus in culture; assay type: cell-based, Staphylococcus aureus
Experimental: (§1) An antimicrobial activity study was conducted on all peptides against a panel of laboratory bacteria, including ATCC source and clinical isolates with resistance determinants. According to CLSI2021 guidelines, we tested the minimum inhibitory concentrations (MICs) of peptides using standard broth micro-dilutions. Briefly, bacteria grown to exponential phase were diluted in 1:1000 to MHB, subsequently, equivalent amounts of bacterial suspension (1.5 × 10^6 CFUs/mL) were mixed with different concentrations of peptides in a sterilized 96-well microtiter plate (Corning).

MRSA 1518 = experiment: microbe, parasite or virus in culture; assay type: cell-based, Staphylococcus aureus
Experimental: as §1

E. coli ATCC 25922 = experiment: microbe, parasite or virus in culture; assay type: cell-based, Escherichia coli
Experimental: as §1

[1] = system: E. coli B2 (blaNDM-5 + mcr-1); experiment: microbe, parasite or virus in culture; assay type: cell-based, Escherichia coli
Experimental: as §1

[2] = system: K. pneumoniae ATCC 700603; experiment: microbe, parasite or virus in culture; assay type: cell-based, Klebsiella pneumoniae
Experimental: as §1

[3] = system: K. pneumoniae D120 (mcr-8); experiment: microbe, parasite or virus in culture; assay type: cell-based, Klebsiella pneumoniae
Experimental: as §1

E. coli 1F28 (tet(X4)) = experiment: microbe, parasite or virus in culture; assay type: cell-based, Escherichia coli
Experimental: as §1

E. coli C3 (blaNDM-1) = experiment: microbe, parasite or virus in culture; assay type: cell-based, Escherichia coli
Experimental: as §1

E. coli G92 (mcr-1) = experiment: microbe, parasite or virus in culture; assay type: cell-based, Escherichia coli
Experimental: as §1

E. coli CP131 (mcr-3) = experiment: microbe, parasite or virus in culture; assay type: cell-based, Escherichia coli
Experimental: as §1

E. coli B3-1 (tet(X4)) = experiment: microbe, parasite or virus in culture; assay type: cell-based, Escherichia coli
Experimental: as §1

E. coli G6 (blaNDM-5) = experiment: microbe, parasite or virus in culture; assay type: cell-based, Escherichia coli
Experimental: as §1

E. faecium 5F-10 = experiment: microbe, parasite or virus in culture; assay type: cell-based, Enterococcus faecium
Experimental: as §1

A. baumannii ATCC 19609 = experiment: microbe, parasite or virus in culture; assay type: cell-based, Acinetobacter baumannii
Experimental: as §1

[4] = system: A. baumannii C222 (tet(X6)); experiment: microbe, parasite or virus in culture; assay type: cell-based, Acinetobacter baumannii
Experimental: as §1

P. aeruginosa PA14 = experiment: microbe, parasite or virus in culture; assay type: cell-based, Pseudomonas aeruginosa
Experimental: as §1

S. aureus ATCC 29213 = experiment: microbe, parasite or virus in culture; assay type: cell-based, Staphylococcus aureus
Experimental: as §1

MRSA T144 [5] = experiment: microbe, parasite or virus in culture; assay type: cell-based, Staphylococcus aureus
Experimental: as §1

E. faecalis 1F-1 = experiment: microbe, parasite or virus in culture; assay type: cell-based
Experimental: as §1

[6] = system: E. faecalis A4 (VRE, VanA); experiment: microbe, parasite or virus in culture; assay type: cell-based
Experimental: as §1

[7] = system: S. enteritidis ATCC 13076; experiment: microbe, parasite or virus in culture; assay type: cell-based
Experimental: as §1

E. coli B2 = assay type: cell-based, Escherichia coli
Experimental: (§2) MRSA T144 and E. coli B2 in the exponential growth phase were incubated with LI14 peptide supplemented with 10 mM Na^+, K^+, Mg^2+, 10% Dulbecco’s modified Eagle medium (DMEM), and 10% fetal bovine serum (FBS) for 16–18 h. The stability of LI14 was evaluated by the change of its antibacterial activity under different conditions.
(§3) LI14 were preincubated for 1 h at various temperatures (40–121 °C), pH (2–12), and proteases (pepsin, trypsin, and papain, final concentration 1 mg/mL). […] Following the incubation with the proteases, the leftover protease was precipitated with acetonitrile and removed by centrifugation at 3000 × g, followed by a MIC test.
(§4) Supplementary Table 4 Thermal, pH, salts and protease stability of AMPs against
(§5) MRSA T144 and E. coli B2 (MIC, μg/mL).
(§6) Treatment MRSA T144 E. coli B2

[8] = system: P. cibarius HNCF44W (blaNDM-1 + tet(X6)); experiment: organism not typed; assay type: cell-based
Experimental: as §1

MRSA T144 [9] = assay type: cell-based, Staphylococcus aureus
Experimental: as §2, §3, §4, §5, §6

MDR E. coli B2 = experiment: Checkerboard assay with LI14; assay type: cell-based, Escherichia coli
Experimental: Through checkerboard assay using two-fold serially diluted drugs (8 × 8 matrix), we evaluated the synergistic effects of LI14 with different mechanisms of antibiotics. The absorbance of cultures at 600 nm was determined by a Microplate reader after 18 h of incubation with (1.5 × 10^6 CFUs/mL) bacterial suspension. The FIC index (FICI) was calculated by performing two biological replicates for each combination. The formula is as follows: FIC index = FICIa + FICIb = MICab/MICa + MICba/Mb. An FIC index of ≤0.5 indicates synergy.
a/bMICs of antibiotics in the absence or presence of ¼ MIC of LI14.
cDegree of antibiotics potentiation in the presence of ¼ MIC of LI14.
–, none of potentiation activity.

S. aureus G16 (RIF^R) = experiment: MIC broth microdilution; assay type: cell-based, Staphylococcus aureus; settings: S. aureus G16 (RIF^R); MHB, 16-18 h, 37 °C
Experimental: as §1

[10] = system: S. aureus 215 (cfr + LZD^R); experiment: MIC broth microdilution; assay type: cell-based, Staphylococcus aureus; settings: S. aureus 215 (cfr + LZD^R); MHB, 16-18 h, 37 °C
Experimental: as §1

E. coli DH5α (PUC19) = experiment: MIC broth microdilution; assay type: cell-based, Escherichia coli; settings: engineered E. coli DH5α (PUC19); MHB, 16-18 h, 37 °C
Experimental: as §1

[11] = system: E. coli DH5α (PUC19-mcr-1); experiment: MIC broth microdilution; assay type: cell-based, Escherichia coli; settings: engineered E. coli DH5α (PUC19-mcr-1); MHB, 16-18 h, 37 °C
Experimental: as §1

CC[C@H](C)[C@H](NC(=O)[C@H](CCCNC(=N)N)NC(=O)[C@H](CS)NC(=O)[C@H](CC(C)C)NC(=O)[C@H](CCCCN)NC(=O)[C@H](CCCCN)NC(=O)[C@H](CC(C)C)NC(=O)[C@@H](NC(=O)[C@H](CCCNC(=N)N)NC(=O)[C@H](CS)NC(=O)[C@H](CC(C)C)NC(=O)[C@H](CCCCN)NC(=O)[C@H](CCCCN)NC(=O)[C@H](CC(C)C)NC(=O)[C@@H](NC(=O)[C@H](CCCNC(=N)N)NC(=O)[C@H](CS)NC(=O)[C@H](CC(C)C)NC(=O)[C@H](CCCCN)NC(=O)[C@H](CCCCN)NC(=O)[C@@H](N)CC(C)C)[C@@H](C)CC)[C@@H](C)CC)C(N)=O [LI21] (H-LKKLCRILKKLCRILKKLCRI-NH2; N-terminus and C-terminus assumed)
MIC (MRSA 1530; 1530): 32 µg/mL (≈ 12.4 µM)
MIC (MRSA 1518; 1518): 32 µg/mL (≈ 12.4 µM)
MIC (E. coli ATCC 25922; ATCC 25922): 64 µg/mL (≈ 24.8 µM)
MIC ([1]; B2 (blaNDM-5 + mcr-1)): 64 µg/mL
MIC ([2]; ATCC 700603): 64 µg/mL (≈ 24.8 µM)
MIC ([3]; D120 (mcr-8)): 32 µg/mL (≈ 12.4 µM)
MIC (E. coli 1F28 (tet(X4)); 1F28 (tet(X4))): 32 µg/mL (≈ 12.4 µM)
MIC (E. coli C3 (blaNDM-1); C3 (blaNDM-1)): 32 µg/mL (≈ 12.4 µM)
MIC (E. coli G92 (mcr-1); G92 (mcr-1)): 32 µg/mL (≈ 12.4 µM)
MIC (E. coli CP131 (mcr-3); CP131 (mcr-3)): 16 µg/mL (≈ 6.2 µM)
MIC (E. coli B3-1 (tet(X4)); B3-1 (tet(X4))): 32 µg/mL (≈ 12.4 µM)
MIC (E. coli G6 (blaNDM-5); G6 (blaNDM-5)): 16 µg/mL (≈ 6.2 µM)
MIC (E. faecium 5F-10; 5F-10): 64 µg/mL (≈ 24.8 µM)
MIC (A. baumannii ATCC 19609; ATCC 19609): 32 µg/mL (≈ 12.4 µM)
MIC ([4]; C222 (tet(X6))): 32 µg/mL (≈ 12.4 µM)
MIC (P. aeruginosa PA14; PA14): 32 µg/mL (≈ 12.4 µM)
MIC (S. aureus ATCC 29213; ATCC 29213): 32 µg/mL (≈ 12.4 µM)
MIC (MRSA T144 [5]; T144): 32 µg/mL (≈ 12.4 µM)
MIC (E. faecalis 1F-1; 1F-1): 64 µg/mL (≈ 24.8 µM)
MIC ([6]; A4 (VRE, VanA)): 32 µg/mL (≈ 12.4 µM)
MIC ([7]; ATCC 13076): 32 µg/mL (≈ 12.4 µM)
MIC (E. coli B2; B2): 32 µg/mL (≈ 12.4 µM)
MIC (E. coli B2; B2, 1 h): > 128 µg/mL
MIC (E. coli B2; E. coli B2, MgCl2 10 mM): 64 µg/mL (≈ 24.8 µM)
MIC [8]: 32 µg/mL (≈ 12.4 µM)
MIC (MRSA T144 [9]; T144): 64 µg/mL (≈ 24.8 µM)
MIC (MRSA T144 [9]; T144, 1 h): > 128 µg/mL

Colistin
MIC (MRSA 1530; MRSA 1530, MHB, 16-18 h, 37 °C): 16 µg/mL
MIC (MRSA 1518; MRSA 1518, MHB, 16-18 h, 37 °C): 16 µg/mL
MIC (E. coli ATCC 25922; E. coli ATCC 25922, MHB, 16-18 h, 37 °C): 0.5 µg/mL
MIC ([1]; E. coli B2 (blaNDM-5 + mcr-1), MHB, 16-18 h, 37 °C): 8 µg/mL
MIC ([2]; K. pneumoniae ATCC 700603, MHB, 16-18 h, 37 °C): 1 µg/mL
MIC ([3]; K. pneumoniae D120 (mcr-8), MHB, 16-18 h, 37 °C): 4 µg/mL
MIC (E. coli 1F28 (tet(X4)); E. coli 1F28 (tet(X4)), MHB, 16-18 h, 37 °C): 0.125 µg/mL
MIC (E. coli C3 (blaNDM-1); E. coli C3 (blaNDM-1), MHB, 16-18 h, 37 °C): <0.125 µg/mL
MIC (E. coli G92 (mcr-1); E. coli G92 (mcr-1), MHB, 16-18 h, 37 °C): 4 µg/mL
MIC (E. coli CP131 (mcr-3); E. coli CP131 (mcr-3), MHB, 16-18 h, 37 °C): 2 µg/mL
MIC (E. coli B3-1 (tet(X4)); E. coli B3-1 (tet(X4)), MHB, 16-18 h, 37 °C): 0.0625 µg/mL
MIC (E. coli G6 (blaNDM-5); E. coli G6 (blaNDM-5), MHB, 16-18 h, 37 °C): 0.5 µg/mL
MIC (E. faecium 5F-10; E. faecium 5F-10, MHB, 16-18 h, 37 °C): >64 µg/mL
MIC (A. baumannii ATCC 19609; A. baumannii ATCC 19609, MHB, 16-18 h, 37 °C): 0.125 µg/mL
MIC ([4]; A. baumannii C222 (tet(X6)), MHB, 16-18 h, 37 °C): <0.125 µg/mL
MIC (P. aeruginosa PA14; P. aeruginosa PA14, MHB, 16-18 h, 37 °C): 1 µg/mL
FIC index (MDR E. coli B2; antibiotic in combination with LI14, checkerboard 8 × 8, 18 h, ≤0.5 = synergy): 2
MICa of antibiotic (MDR E. coli B2; in the absence of LI14): 8 µg/mL
MICb of antibiotic (MDR E. coli B2; in the presence of ¼ MIC of LI14): 8 µg/mL
MIC (S. aureus G16 (RIF^R)): 1 µg/mL
MIC [10]: 16 µg/mL
MIC (S. aureus ATCC 29213; S. aureus ATCC 29213, MHB, 16-18 h, 37 °C): 16 µg/mL
MIC (MRSA T144 [5]; MRSA T144, MHB, 16-18 h, 37 °C): 16 µg/mL
MIC (E. faecalis 1F-1; E. faecalis 1F-1, MHB, 16-18 h, 37 °C): >64 µg/mL
MIC ([6]; E. faecalis A4 (VRE, VanA), MHB, 16-18 h, 37 °C): 64 µg/mL
MIC ([7]; S. enteritidis ATCC 13076, MHB, 16-18 h, 37 °C): 0.25 µg/mL
MIC (E. coli DH5α (PUC19)): <0.125 µg/mL
MIC [11]: 2 µg/mL
MIC ([8]; P. cibarius HNCF44W (blaNDM-1 + tet(X6)), MHB, 16-18 h, 37 °C): >256 µg/mL
